The target in data set [1] is recombinant, constitutively active RSK2 (Homo sapiens, UniProt P51812). As to the kind of experiment: in vitro RSK kinase assay. It is filed as biochemical. Particulars: 10 μM ATP, 30 min, read-out: IC50 for inhibition of RSK catalytic activity in vitro.
Data set [2] has as its system MCF-7 cells. As to the kind of experiment: MCF-7 cell proliferation (CellTiter-Glo). It is filed as cell-based, human. As to conditions: for inhibition of MCF-7 cell proliferation at 50 μM: 72 h. On the procedure: (2A) The potency of purified compounds in inhibiting RSK catalytic activity in vitro was measured. Kinase assays were performed using immobilized substrate. The reactions were initiated by the addition of 10 μM ATP (final concentration). Reactions were terminated after 30 min. All assays measured the initial reaction velocity. The extent of phosphorylation was determined using phosphospecific antibodies in combination with HRP-conjugated secondary antibodies. HRP activity was measured as described in the Experimental. Maximum and minimum activity is the relative luminescence detected in the presence of vehicle and 200 mM EDTA, respectively. Points, mean (n=2 in triplicate); bars=SD. (2B) The potency of purified compounds as inhibitors of MCF-7 cell proliferation was determined. […] Values given are the fold proliferation. Points, mean (n=3 in quadruplicate); bars=SD.
(§1) The cell number was measured after 48 h of treatment. Values given are the fold proliferation as a percentage of that observed with vehicle-treated cells. Points, mean (n=2 in quadruplicate); bars=SD.
(§2) For proliferation studies cells were seeded at 5000 cells per well in 96 well tissue culture plates in the appropriate medium as described by American Type Culture Collection. After 24 hours, the medium was replaced with medium containing compound or vehicle as indicated. Cell viability was measured at indicated time points using CellTiter-Glo™ assay reagent (Promega, Madison, Wis.) according to manufacturer's protocol. Maximum responses and the concentrations of half the effective response (EC50) were determined by performing a best-fit analysis of the data (GraphPad Prism). For specificity studies, cells were seeded at 3×10^5 cells/well in 6 well plates. After 24 hours, the cells were serum-starved for 24 hours then incubated with compound or vehicle for 4 hours prior to a 20 minute treatment with PDB. Cells were lysed with boiling SDS-sample buffer without dithiothreitol (DTT). The lysates were normalized for total protein, and DTT was added to an aliquot, which was electrophoresed and immunoblotted. Antibodies used on cell lysates included anti-pan-MAPK (anti-ERK1/2) (610124) from BD Transduction Laboratories; anti-phospho-MAPK (V8031) from Promega; anti-eEF2 (2332), anti-phospho-eEF2 (2331), anti-phospho-Akt Substrate (9611), anti-phospho-PKA Substrate (9621), and anti-phospho-PKC Substrate (2261) from Cell Signaling Technology. Anti-Ran was a generous gift from Ian Macara (University of Virginia).
A general note: In ATP-based viability assays light output follows the ATP content of the culture.

Data set [3] relates to MCF-10A cells. Description: MCF-10A cell proliferation (CellTiter-Glo). It is filed as cell-based, human. As to conditions: 48 h treatment. How it is done:
as §1
as §2, with “Antibodies used on cell lysates included anti-pan-MAPK (anti-ERK1/2) (610124) from BD Transduction Laboratories; anti-phospho-MAPK (V8031) from Promega; anti-eEF2 (2332), anti-phospho-eEF2 (2331), anti-phospho-Akt Substrate (9611), anti-phospho-PKA Substrate (9621), and anti-phospho-PKC Substrate (2261) from Cell Signaling Technology. Anti-Ran was a generous gift from Ian Macara (University of Virginia).” left out

Data set [4] relates to MAPK. As to the kind of experiment: PDB-stimulated MAPK activation in MCF-7 cells (anti-active MAPK immunoblot). Particulars: serum-deprived MCF-7; 4 h pre-incubation; 500 nM PDB 20 min. The class given is cell-based, human. How it is done:
(3A) The potency of the synthesized compounds in inhibiting RSK catalytic activity in vitro was measured as described in FIG. 2A and is graphically illustrated. (3B) Represents an images of immunoblots where serum-deprived MCF-7 cells were pre-incubated with vehicle, or the indicated concentration of inhibitor for 4 h. Cells were treated with 500 nM PDB or vehicle for 20 min prior to lysis. Protein concentration of lysates was measured and lysates were electrophoresed, transferred and immunoblotted.
For proliferation studies cells were seeded at 5000 cells per well in 96 well tissue culture plates in the appropriate medium as described by American Type Culture Collection. After 24 hours, the medium was replaced with medium containing compound or vehicle as indicated. Cell viability was measured at indicated time points using CellTiter-Glo™ assay reagent (Promega, Madison, Wis.) according to manufacturer's protocol. Maximum responses and the concentrations of half the effective response (EC50) were determined by performing a best-fit analysis of the data (GraphPad Prism). For specificity studies, cells were seeded at 3×10^5 cells/well in 6 well plates. After 24 hours, the cells were serum-starved for 24 hours then incubated with compound or vehicle for 4 hours prior to a 20 minute treatment with PDB. Cells were lysed with boiling SDS-sample buffer without dithiothreitol (DTT). […]

Data set [5] concerns PKA, PKC and AKT. As to the kind of experiment: phosphorylation patterns in MCF-7 cells with phospho-PKA, -PKC, -AKT substrate antibodies (specificity). The class given is cell-based, human. As to conditions: pre-incubation before PDB. On the procedure:
MCF-7 cell lysates normalized for protein concentration were electrophoresed, transferred and immunoblotted with anti-phospho-PKA substrate, anti-phospho-PKC substrate or anti-phospho-AKT substrate.
as §2
The lysates were immunoblotted with multiple phospho-specific substrate antibodies.

Data set [6] is described as follows: calculated LogP (Molinspiration Property Calculation Service). As to conditions: relative to SL0101, from calculated LogP. On the procedure:
Reagents and solvents were reagent grade and used without further purification. Methylene chloride was distilled from calcium hydride. Anhydrous grade THF was purchased from VWR. All reactions involving air or moisture sensitive reagents or intermediates were performed under a nitrogen or argon atmosphere. Flash chromatography was performed using Silicycle 40-60 mesh silica gel. Analytical TLC was performed using 0.25 mm EM silica gel 60 […] plates that were visualized by irradiation (254 nm) or by staining with Hanessian's stain (cerium molybdate). Optical rotations were obtained using a Jasco digital polarimeter. ^1H and ^13C NMR spectra were obtained using 300 MHz and 500 MHz Varian instruments. Chemical shifts are reported in parts per million (ppm δ) referenced to the residual ^1H resonance of the solvent (CDCl3, 7.26 ppm; DMSO-d6, 2.49 ppm). ^13C spectra were referenced to the residual ^13C resonance of the solvent (CDCl3, 77.3 ppm; DMSO-d6, 39.5 ppm). Splitting patterns are designated as follows: s, singlet; br, broad; d, doublet; dd, doublet of doublets; t, triplet; q, quartet; m, multiplet. High resolution mass spectra were obtained at the Michigan State University-NIH Mass Spectrometry Facility. LogP values were calculated using Molinspiration Property Calculation Service (see their website).

Data set [7] in a line: maximum solubility in tissue culture media. As to conditions: aqueous buffer. The class given is physicochemical.
The test system of data set [8] is RSK. As to the kind of experiment: eEF2 phosphorylation in PDB-stimulated MCF-7 cells (RSK activity in intact cells). It is filed as cell-based, human. As to conditions: serum-deprived MCF-7; 4 h pre-incubation; 500 nM PDB 20 min.
From the text: Therefore, the phosphorylation state of eEF2 during mitogenic stimulation is an indicator of RSK activity.
The test system of data set [9] is MCF-7 cells. As to conditions: cited from earlier work.
The subject of data set [10] is MCF-10A cells. Particulars: background; cited from earlier work.
[11] abbreviates: compounds purified from F. refracta.

SMILES strings stand for the structures. ≈ marks a conversion by molar mass, not a printed value. Read-outs that look alike come from different tables or passages of the source. Bounds are passed on as bounds.

The term IC50 denotes the concentration that gives 50% inhibition. One may read the solubility as the dissolved amount per volume that the medium holds. Read a high solubility as much dissolved substance.

recombinant, constitutively active RSK2, sequence (P51812 1-397 limits assumed): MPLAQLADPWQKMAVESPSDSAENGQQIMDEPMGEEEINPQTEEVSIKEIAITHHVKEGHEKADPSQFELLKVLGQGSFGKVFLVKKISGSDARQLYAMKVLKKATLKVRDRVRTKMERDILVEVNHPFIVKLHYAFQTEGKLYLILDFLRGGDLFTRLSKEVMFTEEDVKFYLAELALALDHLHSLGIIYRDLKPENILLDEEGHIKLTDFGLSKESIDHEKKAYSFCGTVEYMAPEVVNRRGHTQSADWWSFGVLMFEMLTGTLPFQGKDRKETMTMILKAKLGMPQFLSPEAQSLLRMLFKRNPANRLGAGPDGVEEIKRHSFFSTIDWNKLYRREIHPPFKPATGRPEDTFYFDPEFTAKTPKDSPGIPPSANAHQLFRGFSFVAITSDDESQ

Turning to `CC(=O)OC1C(C)OC(Oc2c(-c3ccc(O)cc3)oc3cc(O)cc(O)c3c2=O)C(OC(C)=O)C1O` [2″,4″-di-O-acetyl-SL0101, kaempferol 3-O-(2″,4″-di-O-acetyl-α-L-rhamnopyranoside)], in data set [1] (setting [11]), the IC50 was approximately 260 nM. Further, the “inhibition of MCF-7 cell proliferation at 50 μM” value (from here on “inhibition … at 50 μM”) in data set [2] is “similarly effective at inhibiting MCF-7 cell growth”.
Take `CC(=O)OC1C(C)OC(Oc2c(-c3ccc(O)cc3)oc3cc(O)cc(O)c3c2=O)C(O)C1O` [4″-mono-O-acetyl-SL0101, kaempferol 3-O-(4″-mono-O-acetyl-α-L-rhamnopyranoside)]: the IC50 in [1] (setting [11]) is approximately 140 nM. For the same molecule, in data set [2], the “inhibition … at 50 μM” value was “did not inhibit MCF-7 cell proliferation”.
Take `CCCC(=O)O[C@@H]1[C@@H](OC(=O)CCC)[C@@H](O)[C@H](Oc2c(-c3ccc(O)cc3)oc3cc(O)cc(O)c3c2=O)O[C@H]1C` [Bu-SL0101, kaempferol 3-O-(3″,4″-di-O-butyryl-α-L-rhamnopyranoside)]: the IC50 in [1] (synthesized compounds) was determined as 212 nM. In addition, the EC50 in data set [2] (Homo sapiens, MCF7, 48 h treatment, read-out: EC50 for inhibition of MCF-7 proliferation) came out at 40000 nM. Moreover, in data set [3], the “concentration at which significant inhibition of MCF-10A proliferation began” value was 100 µM. Moreover, in [4], the “effect on PDB-induced MAPK activation / upstream kinases (MEK, Raf, PKC)” value is listed as “do not inhibit upstream kinases necessary for PDB-induced MAPK activation”. Also, in data set [5], the “effect on phosphorylation patterns (phospho-PKA, -PKC, -AKT substrate antibodies)” value (from here on “effect on phosphorylation patterns”) is reported as “decreased the PDB-induced phosphorylation of a ˜25 kDa protein” and the “specificity for RSK in intact cells” value is recorded as “not specific for inhibition of RSK activity”. For the same molecule, in data set [6], the increase in hydrophobicity was more than 50 fold. Moreover, the solubility in data set [7] was approximately 100 µM (≈ 57.3 µg/mL).
On to `CC(=O)OC1C(C)OC(Oc2c(-c3ccc(O)cc3)oc3cc(O)cc(O)c3c2=O)C(O)C1OC(C)=O` [SL0101, kaempferol 3-O-(3″,4″-di-O-acetyl-α-L-rhamnopyranoside), reference compound], for which, in [2], the “inhibition … at 50 μM” value is on record as “similarly effective at inhibiting MCF-7 cell growth”. Besides, the “effect on eEF2 phosphorylation after PDB” value in data set [8] is recorded as “eliminated PDB-mediated inactivation of eEF2K”. For the same molecule, in data set [4], the “effect on PDB-induced MAPK activation / upstream kinases (MEK, Raf, PKC)” value is “do not inhibit upstream kinases necessary for PDB-induced MAPK activation”. In data set [5], the “effect on phosphorylation patterns” value was “similar” and the “specificity for RSK in intact cells” value is recorded as “demonstrates specificity for RSK in intact cells”. For the same molecule, the “proliferation of the human breast cancer cell line MCF-7” value in data set [9] (background) was “inhibits proliferation”. In addition, the EC50 in [9] (previously reported (ref 4), current results in agreement, read-out: EC50 for inhibition of MCF-7 cell proliferation) is approximately 50000 nM. Moreover, the “growth of the normal human breast line MCF-10A” value in [10] is “does not prevent the growth”.
In the case of `N#CC(=C(/N)Sc1ccccc1N)/C(C#N)=C(\N)Sc1ccccc1N` [U0126, reference compound], the “effect on eEF2 phosphorylation after PDB” value in data set [8] is “levels of eEF2 phosphorylation also remained increased”. Moreover, the “effect on phosphorylation patterns” value in data set [5] was “PDB-induced phosphorylation is inhibited”.

(Values after patent US8426568B2 (University of Virginia Patent Foundation, priority 2006, dated 2013).)
